In patent US7183306B2, “Pyrazole derivatives” (Astellas Pharma Inc., priority 2002, dated 2007):

System: arthritic rats (adjuvant arthritis)
Assay: Analgesic activity: effect on adjuvant arthritis in rats (Randall-Selitto pain threshold)
Type: in vivo, Lewis rats
Conditions: Rattus norvegicus, single dose, pain threshold of left hind paw 2 hrs after administration, threshold pressure of treated vs non-treated rats, ratio of 1.5 considered effective, read-out: The coefficient of analgesic

| SMILES | response vs control in vivo at 3.2 mg/kg |
| --- | --- |
| COc1ccc(-n2nc(C(F)(F)F)cc2-c2ccc(OCCN)cc2)cc1 [Example 267] | ≥ 150% |

System: not given
Assay: not given
Conditions: not given

| SMILES | melting point |
| --- | --- |
| COc1ccc(-n2nc(OCC(F)(F)F)cc2-c2ccc(OCCNC(N)=O)cc2)cn1 | 134.8 to 134.9 °C |
| COc1ccc(-n2nc(C(=O)C(C)C)cc2-c2ccc(OCCN)cc2)cc1.Cl | 129 to 142 °C |
| C=C(C)c1cc(-c2ccc(OCCNS(C)(=O)=O)cc2)n(-c2ccc(OC)nc2)n1 | 96 to 99 °C |
| COc1ccc(-n2nc(C(C)C)cc2-c2ccc(OCCNC(N)=O)cc2)cc1 | 100 to 104 °C |
| COc1ccc(-n2nc(OC(C)C)cc2-c2ccc(OCCNS(C)(=O)=O)cc2)cn1 | 121 to 121.6 °C |
| CCOCCOc1cc(-c2ccc(OCCNS(C)(=O)=O)cc2)n(-c2ccc(OC)cc2)n1 | 116.3 to 116.4 °C |
| COc1ccc(-n2nc(C(=O)C(C)C)cc2-c2ccc(OCCN)cc2)cn1.Cl.Cl | 156 to 161 °C |
| COc1ccc(-n2nc(C(=O)C(C)C)cc2-c2ccc(OCCNS(C)(=O)=O)cc2)cn1 | 155.6 to 155.8 °C |
| COc1ccc(-n2nc(OCC(=O)N(C)C)cc2-c2ccc(OCCNC(N)=O)cc2)cc1 | 223 to 227 °C |
| COc1ccc(-n2nc(C(F)(F)F)cc2-c2ccc(CCNC(C)=O)cc2)cn1 | 97 to 98 °C |
| COc1ccc(-n2nc(OC(C)C)cc2-c2ccc(OCCNC(N)=O)cc2)cn1 | 120 °C |
| COc1ccc(-n2nc(C(F)F)cc2-c2ccc(CCNC(N)=O)cc2)cn1 | 194 to 196 °C |
| CCN(C)C(=O)c1cc(-c2ccc(OCCNS(C)(=O)=O)cc2)n(-c2ccc(OC)cc2)n1 | 106 to 106.3 °C |
| COc1ccc(-n2nc(C(=O)N3CCCCC3)cc2-c2ccc(OCCNC(N)=O)cc2)cn1 | 164 to 167 °C |
| CCOCCOc1cc(-c2ccc(OCCNC(N)=O)cc2)n(-c2ccc(OC)cc2)n1 | 124.1 to 124.2 °C |
| COc1ccc(-n2nc(OCC(F)(F)F)cc2-c2ccc(OCCNC(N)=O)cc2)cc1 | 130 to 132 °C |
| CCOc1cc(-c2ccc(OCCNS(C)(=O)=O)cc2)n(-c2ccc(OC)cc2)n1 | 146 to 147 °C |
| COc1ccc(-n2nc(C#N)cc2-c2ccc(OCCNC(N)=O)cc2)cc1 | 187 to 190 °C |
| CCOC(=O)c1cc(-c2ccc(OCCO[Si](C)(C)C(C)(C)C)cc2)n(-c2ccc(OC)cc2)n1 | 86 to 87 °C |
| COc1ccc(-n2nc(OC)cc2-c2ccc(OCCNS(C)(=O)=O)cc2)cn1 | 116 to 117.5 °C |
| COc1ccc(-n2nc(SC)cc2-c2ccc(OCCNC(N)=O)cc2)cc1 | 141.2 to 142.2 °C |
| COc1ccc(-n2nc(C(=O)N3CCCCC3)cc2-c2ccc(OCCO)cc2)cc1 | 121.9 to 123.8 °C |
| COc1ccc(-n2nc(OC)cc2-c2ccc(CNS(C)(=O)=O)cc2)cc1 | 94 to 94.3 °C |
| COc1ccc(-n2nc(OCC(F)(F)F)cc2-c2ccc(OCCO)cc2)cc1 | 50.7 to 51.7 °C |

| SMILES | melting point |
| --- | --- |
| COc1ccc(-n2nc(C(=O)C(C)C)cc2-c2ccc(CNS(C)(=O)=O)cc2)cn1 | 160.8 to 161.2 °C |
| COc1ccc(-n2nc(C(=O)N3CCCCC3)cc2-c2ccc(OCCNS(C)(=O)=O)cc2)cn1 | 158.8 to 159.1 °C |
| COc1ccc(-n2nc(C#N)cc2-c2ccc(OCCO)cc2)cn1 | 105 to 107 °C |
| COc1ccc(-n2nc(C3CC3)cc2-c2ccc(OCCN)cc2)cc1.Cl [322] | 228 to 231 °C |
| COc1ccc(-n2nc(C(F)(F)F)cc2-c2ccc(CCNS(N)(=O)=O)cc2)cn1 | 114 to 115 °C |
| COc1ccc(-n2nc(OC(C)C)cc2-c2ccc(OCCO)cc2)cn1 | 74 to 75 °C |
| CNS(=O)(=O)CCc1ccc(-c2cc(C(F)(F)F)nn2-c2ccc(OC)nc2)cc1 | 139 to 140 °C |
| COc1ccc(-n2nc(Cl)cc2-c2ccc(CNC(N)=O)cc2)cn1 | 111 to 115 °C |
| COc1ccc(-n2nc(N(C)C(=O)N(C)C)cc2-c2ccc(OCCNC(N)=O)cc2)cc1 | 158.6 to 159 °C |
| COc1ccc(-n2nc(C(F)(F)F)cc2-c2ccc(CCO)cc2)cn1 | 89 to 92 °C |
| COc1ccc(-n2nc(C(F)F)cc2-c2ccc(OCCNC(N)=O)cc2)cn1 [241] | 139 to 140 °C |
| CCOc1cc(-c2ccc(OCCNS(C)(=O)=O)cc2)n(-c2ccc(OC)nc2)n1 | 122 to 122.6 °C |
| COc1ccc(-n2nc(C(F)(F)C(F)(F)F)cc2-c2ccc(CCO)cc2)cc1 | 97 to 98 °C |
| COc1ccc(-n2nc(C(=O)N3CCCCC3)cc2-c2ccc(CNS(C)(=O)=O)cc2)cc1 | 179.3 to 179.6 °C |
| CCN(C)C(=O)c1cc(-c2ccc(OCCN)cc2)n(-c2ccc(OC)cc2)n1.Cl | 207 to 209 °C |
| CCN(C)C(=O)c1cc(-c2ccc(CNC(N)=O)cc2)n(-c2ccc(OC)nc2)n1 | 172.6 to 172.8 °C |
| CCN(C)C(=O)c1cc(-c2ccc(OCCO)cc2)n(-c2ccc(OC)nc2)n1 | 110 to 111 °C |
| COc1ccc(-n2nc(C(C)C)cc2-c2ccc(CNS(C)(=O)=O)cc2)cc1 | 130.9 to 131 °C |
| CSc1ccc(-n2nc(C(F)F)cc2-c2ccc(OCCNC(N)=O)cc2)cc1 | 184.3 to 184.7 °C |
| CCN(C)C(=O)c1cc(-c2ccc(CCNS(C)(=O)=O)cc2)n(-c2ccc(OC)cc2)n1 | 162 to 163 °C |
| COc1ccc(-n2nc(S(C)(=O)=O)cc2-c2ccc(OCCO)cc2)cc1 | 96 to 99 °C |
| CCN(C)C(=O)c1cc(-c2ccc(CNC(N)=O)cc2)n(-c2ccc(OC)cc2)n1 | 184.7 to 185.1 °C |
| COc1ccc(-n2nc(OCC(=O)N(C)C)cc2-c2ccc(OCCO)cc2)cc1 | 106.6 to 107.1 °C |
| COC(=O)NCCc1ccc(-c2cc(C(F)(F)F)nn2-c2ccc(OC)cc2)cc1 | 78 to 80 °C |

| SMILES | melting point |
| --- | --- |
| COc1ccc(-n2nc(C(F)(F)F)cc2-c2ccc(CCNS(N)(=O)=O)cc2)cc1 | 127 to 128 °C |
| COc1ccc(-n2nc(C(=O)C(C)C)cc2-c2ccc(OCCO)cc2)cn1 | 108 to 109 °C |
| COc1ccc(-n2nc(C(=O)C(C)C)cc2-c2ccc(OCCNS(C)(=O)=O)cc2)cc1 | 155 °C |
| COc1ccc(-n2nc(C(C)(C)O)cc2-c2ccc(OCCNC(N)=O)cc2)cc1 | 147 to 152 °C |
| COc1ccc(-n2nc(C(F)(F)F)cc2-c2ccc(CCNC(N)=O)cc2)cn1 | 205 to 206 °C |
| COc1ccc(-n2nc(-c3nc(C)no3)cc2-c2ccc(CCO)cc2)cc1 | 148 to 150 °C |
| COc1ccc(-n2nc(OC)cc2-c2ccc(OCCO)cc2)cc1 | 107 to 109 °C |
| COCCOc1cc(-c2ccc(OCCNS(C)(=O)=O)cc2)n(-c2ccc(OC)cc2)n1 | 94.5 to 94.7 °C |
| COc1ccc(-n2nc(OCC(F)F)cc2-c2ccc(OCCNS(C)(=O)=O)cc2)cc1 | 145 to 145.1 °C |
| CCN(C)C(=O)c1cc(-c2ccc(CCNS(C)(=O)=O)cc2)n(-c2ccc(OC)nc2)n1 | 137 to 138 °C |
| CSc1ccc(-n2nc(C(F)F)cc2-c2ccc(OCCNS(C)(=O)=O)cc2)cc1 | 122.7 to 122.8 °C |
| COc1ccc(-n2nc(C(F)(F)F)cc2-c2ccc(CNC(N)=O)cc2)cn1 | 147 to 149 °C |
| COc1ccc(-n2nc(OC)cc2-c2ccc(OCCNC(N)=O)cc2)cn1 | 192.6 to 192.7 °C |
| CCN(C)C(=O)c1cc(-c2ccc(OCCNS(C)(=O)=O)cc2)n(-c2ccc(OC)nc2)n1 | 110 to 111 °C |
| COc1ccc(-n2nc(C(=O)N3CCCCC3)cc2-c2ccc(CNS(C)(=O)=O)cc2)cn1 | 182.6 to 182.9 °C |
| COc1ccc(-n2nc(C(F)(F)F)cc2-c2ccc(CCC[S+](C)[O-])cc2)cn1 (centres unmarked) | 92 to 93 °C |
| COc1ccc(-n2nc(C(F)(F)F)cc2-c2ccc(CNS(C)(=O)=O)cc2)cn1 | 125 to 126 °C |
| COc1ccc(-n2nc(Cl)cc2-c2ccc(CNC(N)=O)cc2)cc1 | 125.5 to 126.2 °C |
| CCOc1cc(-c2ccc(OCCO)cc2)n(-c2ccc(OC)cc2)n1 | 67.7 to 69.2 °C |
| COc1ccc(-n2nc(C(=O)C(C)C)cc2-c2ccc(CNC(N)=O)cc2)cn1 | 157 to 157.3 °C |
| COc1ccc(-n2nc(OC)cc2-c2ccc(OCCNC(N)=S)cc2)cc1 | 141.6 to 142.3 °C |
| COc1ccc(-n2nc(C(F)F)cc2-c2ccc(CNS(C)(=O)=O)cc2)cn1 | 125.7 to 126.1 °C |
